This note sets out measurements from patent publication US20240109865A1, “INDAZOLE COMPOUNDS AS KINASE INHIBITORS” (TYRA BIOSCIENCES, INC., priority 2020, published 2024).

What all share (assay): Kinase assay, binding constants (Kd), kinase-tagged T7 phage, qPCR
The target in one assay is FGFR1 (Homo sapiens (Human), UniProt P11362). The gist of the method: (§1)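 Competition binding: T7 phage-tagged kinase + biotin-ligand beads + compound (11 pts, 3-fold, 0.9% DMSO). Elution 30 min RT with free ligand; qPCR quantitation. Kd via Hill fit, slope −1.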
FGFR1, sequence (P11362 22-822): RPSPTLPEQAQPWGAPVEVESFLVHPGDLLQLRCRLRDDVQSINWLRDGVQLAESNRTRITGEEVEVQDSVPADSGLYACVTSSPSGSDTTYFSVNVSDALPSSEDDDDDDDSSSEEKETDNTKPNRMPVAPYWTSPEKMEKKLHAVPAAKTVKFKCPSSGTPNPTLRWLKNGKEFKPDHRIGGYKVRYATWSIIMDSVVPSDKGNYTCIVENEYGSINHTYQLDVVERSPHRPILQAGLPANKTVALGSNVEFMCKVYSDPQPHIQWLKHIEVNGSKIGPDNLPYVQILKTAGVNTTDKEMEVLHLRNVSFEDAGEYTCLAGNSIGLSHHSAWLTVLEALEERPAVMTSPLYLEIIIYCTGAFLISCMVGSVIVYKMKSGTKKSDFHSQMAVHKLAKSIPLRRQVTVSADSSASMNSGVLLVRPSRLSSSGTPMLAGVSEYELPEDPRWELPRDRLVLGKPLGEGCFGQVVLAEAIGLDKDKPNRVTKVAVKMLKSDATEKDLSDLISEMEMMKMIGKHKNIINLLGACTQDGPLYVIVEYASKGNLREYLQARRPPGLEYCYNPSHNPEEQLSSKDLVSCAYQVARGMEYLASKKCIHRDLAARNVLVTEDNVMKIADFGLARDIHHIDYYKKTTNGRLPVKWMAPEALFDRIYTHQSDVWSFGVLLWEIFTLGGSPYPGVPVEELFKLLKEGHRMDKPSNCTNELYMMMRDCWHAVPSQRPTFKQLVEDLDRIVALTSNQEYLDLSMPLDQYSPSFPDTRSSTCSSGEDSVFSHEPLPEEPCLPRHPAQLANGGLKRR
For the next assay, the target named is FGFR2 (Homo sapiens (Human), UniProt P21802). The gist of the method:
as §1

The next assay deals with FGFR3 (Homo sapiens (Human), UniProt P22607). The gist of the method:
as §1

In a further assay the target is FGFR3 (V555M) (Homo sapiens (Human), UniProt P22607, V555M). The following applies: V555M mutant. The gist of the method:
as §1

A further assay deals with FGFR4 (Homo sapiens (Human), UniProt P22455). The gist of the method: as §1
FGFR4, sequence (P22455 22-802): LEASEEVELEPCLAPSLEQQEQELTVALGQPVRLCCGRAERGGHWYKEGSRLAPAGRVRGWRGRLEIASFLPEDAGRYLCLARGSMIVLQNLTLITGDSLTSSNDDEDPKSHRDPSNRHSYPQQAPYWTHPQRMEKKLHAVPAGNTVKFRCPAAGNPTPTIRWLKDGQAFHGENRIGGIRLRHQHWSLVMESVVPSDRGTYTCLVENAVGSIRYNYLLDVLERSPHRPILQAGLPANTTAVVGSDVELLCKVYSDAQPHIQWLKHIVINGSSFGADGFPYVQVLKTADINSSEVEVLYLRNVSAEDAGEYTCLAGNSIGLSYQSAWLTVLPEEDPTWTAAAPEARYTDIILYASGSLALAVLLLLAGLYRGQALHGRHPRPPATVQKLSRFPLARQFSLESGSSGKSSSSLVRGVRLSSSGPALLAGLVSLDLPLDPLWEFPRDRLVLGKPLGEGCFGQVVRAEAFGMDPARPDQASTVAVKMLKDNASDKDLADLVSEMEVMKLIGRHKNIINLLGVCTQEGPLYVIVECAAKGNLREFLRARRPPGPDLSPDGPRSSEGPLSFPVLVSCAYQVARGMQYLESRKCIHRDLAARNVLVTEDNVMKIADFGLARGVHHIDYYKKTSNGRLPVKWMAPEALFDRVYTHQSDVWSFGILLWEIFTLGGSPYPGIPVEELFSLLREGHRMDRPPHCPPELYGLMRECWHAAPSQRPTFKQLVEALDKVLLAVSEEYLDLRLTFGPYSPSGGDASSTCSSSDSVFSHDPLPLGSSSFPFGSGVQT

FGFR3 (V555M), sequence (P22607 23-806 V555M): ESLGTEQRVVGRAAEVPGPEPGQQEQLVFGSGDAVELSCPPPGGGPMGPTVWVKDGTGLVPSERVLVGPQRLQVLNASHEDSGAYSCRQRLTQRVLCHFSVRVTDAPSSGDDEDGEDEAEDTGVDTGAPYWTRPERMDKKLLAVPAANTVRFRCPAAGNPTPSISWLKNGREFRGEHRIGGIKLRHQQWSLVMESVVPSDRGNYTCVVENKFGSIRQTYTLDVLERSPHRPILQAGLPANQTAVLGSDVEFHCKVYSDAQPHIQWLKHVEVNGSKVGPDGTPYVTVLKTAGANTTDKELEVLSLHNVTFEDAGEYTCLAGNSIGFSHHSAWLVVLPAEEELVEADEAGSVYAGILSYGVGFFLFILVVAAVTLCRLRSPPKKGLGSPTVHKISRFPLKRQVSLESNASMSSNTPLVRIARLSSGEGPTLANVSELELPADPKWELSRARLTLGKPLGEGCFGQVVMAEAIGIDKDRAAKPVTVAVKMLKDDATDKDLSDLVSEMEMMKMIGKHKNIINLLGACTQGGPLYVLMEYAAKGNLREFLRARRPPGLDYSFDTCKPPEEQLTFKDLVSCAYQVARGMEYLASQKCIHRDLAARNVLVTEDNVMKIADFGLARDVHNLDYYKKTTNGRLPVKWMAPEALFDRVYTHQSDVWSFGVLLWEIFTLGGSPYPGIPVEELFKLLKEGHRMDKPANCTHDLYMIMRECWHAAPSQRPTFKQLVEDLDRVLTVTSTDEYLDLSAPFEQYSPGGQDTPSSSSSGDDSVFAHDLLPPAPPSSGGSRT
FGFR3, sequence (P22607 23-806): as the sequence (P22607 23-806 V555M) above, with M533V counted along it
FGFR2, sequence (P21802 22-821): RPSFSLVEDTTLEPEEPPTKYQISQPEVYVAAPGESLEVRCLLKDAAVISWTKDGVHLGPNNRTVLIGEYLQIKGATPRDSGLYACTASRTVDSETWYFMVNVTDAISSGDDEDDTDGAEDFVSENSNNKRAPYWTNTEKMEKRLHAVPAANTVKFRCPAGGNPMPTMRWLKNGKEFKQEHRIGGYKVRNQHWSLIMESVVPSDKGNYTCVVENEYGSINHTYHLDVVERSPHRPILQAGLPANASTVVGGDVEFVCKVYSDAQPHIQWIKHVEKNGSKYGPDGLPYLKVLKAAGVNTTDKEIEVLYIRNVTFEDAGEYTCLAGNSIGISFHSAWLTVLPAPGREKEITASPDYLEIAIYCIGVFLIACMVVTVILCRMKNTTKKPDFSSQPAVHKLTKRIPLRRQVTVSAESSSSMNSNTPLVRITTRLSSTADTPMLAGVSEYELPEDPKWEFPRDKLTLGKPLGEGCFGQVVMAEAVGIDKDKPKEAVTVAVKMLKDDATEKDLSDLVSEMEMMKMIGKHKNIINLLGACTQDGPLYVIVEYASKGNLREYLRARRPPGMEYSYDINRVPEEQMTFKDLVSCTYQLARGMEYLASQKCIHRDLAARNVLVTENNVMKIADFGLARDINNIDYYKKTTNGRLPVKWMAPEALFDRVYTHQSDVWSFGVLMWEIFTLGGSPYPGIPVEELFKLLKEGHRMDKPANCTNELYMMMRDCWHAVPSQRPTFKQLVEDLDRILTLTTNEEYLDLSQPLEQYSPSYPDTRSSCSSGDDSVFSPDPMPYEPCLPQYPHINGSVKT

As to `Cc1cc(-c2n[nH]c3ccc(O[C@H](C)c4c(Cl)cncc4Cl)cc23)cnc1N1CC2(C1)CN(S(C)(=O)=O)C2` [Example 248, 5-[(1R)-1-(3,5-dichloro-4-pyridyl)ethoxy]-3-[5-methyl-6-(2-methylsulfonyl-2,6-diazaspiro[3.3]heptan-6-yl)-3-pyridyl]-1H-indazole], the dissociation constant Kd was 20 to 100 nM at FGFR1; 20 to 100 nM on FGFR2; 1 to 20 nM on FGFR3; 1 to 20 nM at FGFR3 (V555M); 1 to 20 nM on FGFR4.

As to `C[C@@H](Oc1ccc2[nH]nc(-c3ccc(N4CC(C(F)(F)F)C4)nc3)c2c1)c1c(Cl)cncc1Cl` [Example 249, (R)-5-(1-(3,5-dichloropyridin-4-yl)ethoxy)-3-(6-(3-(trifluoromethyl)azetidin-1-yl)pyridin-3-yl)-1H-indazole], the dissociation constant Kd on FGFR1 lay within 20 to 100 nM; at FGFR2, 20 to 100 nM; at FGFR3, 1 to 20 nM; at FGFR3 (V555M), 1 to 20 nM; on FGFR4, 1 to 20 nM.

As to `COc1cc2[nH]nc(-c3cnc(N4CC5(C4)CN(S(C)(=O)=O)C5)c(C)c3)c2cc1O[C@H](C)c1c(Cl)cncc1Cl` [Example 250, 5-[(1R)-1-(3,5-dichloro-4-pyridyl)ethoxy]-6-methoxy-3-[5-methyl-6-(2-methylsulfonyl-2,6-diazaspiro[3.3]heptan-6-yl)-3-pyridyl]-1H-indazole], the dissociation constant (Kd) at FGFR1, on FGFR2, on FGFR3, at FGFR3 (V555M) and at FGFR4 was 1 to 20 nM throughout.

Regarding `Cc1cc2[nH]nc(-c3ccc(N4CC5(C4)CN(S(C)(=O)=O)C5)nc3)c2cc1O[C@H](C)c1c(Cl)cncc1Cl` [Example 251, (R)-5-(1-(3,5-dichloropyridin-4-yl)ethoxy)-6-methyl-3-(6-(6-(methylsulfonyl)-2,6-diazaspiro[3.3]heptan-2-yl)pyridin-3-yl)-1H-indazole], the dissociation constant (Kd) on FGFR1, on FGFR2, on FGFR3, at FGFR3 (V555M) and on FGFR4 was 1 to 20 nM in each case.

For the compound `C[C@@H](Oc1ccc2[nH]nc(-c3ccc(N4CC(C(F)F)C4)nc3)c2c1)c1c(Cl)cncc1Cl` [Example 252, (R)-5-(1-(3,5-dichloropyridin-4-yl)ethoxy)-3-(6-(3-(difluoromethyl)azetidin-1-yl)pyridin-3-yl)-1H-indazole], the equilibrium dissociation constant (Kd) on FGFR1 was 20 to 100 nM; on FGFR2, 20 to 100 nM; on FGFR3, 1 to 20 nM; at FGFR3 (V555M), 1 to 20 nM; at FGFR4, 1 to 20 nM.

`C[C@@H](Oc1ccc2[nH]nc(-c3ccc(N4CC(C#N)C4)nc3)c2c1)c1c(Cl)cncc1Cl` [Example 253, (R)-1-(5-(5-(1-(3,5-dichloropyridin-4-yl)ethoxy)-1H-indazol-3-yl)pyridin-2-yl)azetidine-3-carbonitrile]: the dissociation constant (Kd) at FGFR1, on FGFR2, on FGFR3, on FGFR3 (V555M) and on FGFR4 was 1 to 20 nM each time.

As for `Cc1cc2[nH]nc(-c3cnc(N4CC5(C4)CN(S(C)(=O)=O)C5)c(F)c3)c2cc1O[C@@H](C)c1c(Cl)cnnc1Cl` [Example 254, (S)-5-(1-(3,5-dichloropyridazin-4-yl)ethoxy)-3-(5-fluoro-6-(6-(methylsulfonyl)-2,6-diazaspiro[3.3]heptan-2-yl)pyridin-3-yl)-6-methyl-1H-indazole], the dissociation constant Kd on FGFR1 was > 300 nM; at FGFR2, 100 to 300 nM; on FGFR3, 20 to 100 nM; on FGFR3 (V555M) it was 1 to 20 nM; on FGFR4, > 300 nM.

Consider `C[C@@H](Oc1cc2c(-c3ccc(N4CC5(C4)CN(S(C)(=O)=O)C5)nc3)n[nH]c2cc1F)c1c(Cl)cncc1Cl` [Example 255, (R)-5-(1-(3,5-dichloropyridin-4-yl)ethoxy)-6-fluoro-3-(6-(6-(methylsulfonyl)-2,6-diazaspiro[3.3]heptan-2-yl)pyridin-3-yl)-1H-indazole], for which the equilibrium dissociation constant (Kd) at FGFR1, on FGFR2, at FGFR3, on FGFR3 (V555M) and on FGFR4 was 1 to 20 nM throughout.

The Kd is the free concentration of one partner at which half of the binding sites on the other are occupied at equilibrium, for simple one-to-one binding. High values mean weaker binding, low ones tighter binding.
